Test results: patent publication US12440481B2, “Esters and carbamates as modulators of sodium channels” (VERTEX PHARMACEUTICALS INCORPORATED, priority 2019, dated 2025)

Biological target: human NaV 1.8 (Homo sapiens, UniProt Q9Y5Y9)
Assay: E-VIPR Assay for Detecting and Measuring NaV Inhibition Properties
Format: cell-based
Details: HEK cells expressing a truncated form of human NaV 1.8; HS = human serum; read-out: EVIPR HS IC50
Excerpt: E-VIPR Assay for Detecting and Measuring NaV Inhibition Properties
Sodium ion channels are voltage-dependent proteins that can be activated by inducing membrane voltage changes by applying electric fields. The electrical stimulation instrument and methods of use, referred to as E-VIPR, are described in International Publication No. WO 2002/008748 A3 and C.-J. Huang et al. Characterization of voltage-gated sodium channel blockers by electrical stimulation and fluorescence detection of membrane potential, 24 Nature Biotech. 439-46 (2006), both of which are incorporated by reference in their entirety. The instrument comprises a microtiter plate handler, an optical system for exciting the coumarin dye while simultaneously recording the coumarin and oxonol emissions, a waveform generator, a current- or voltage-controlled amplifier, and parallel electrode pairs that are inserted into assay plate wells. Under integrated computer control, this instrument passes user-programmed electrical stimulus protocols to cells within the wells of the microtiter plate.
16-20 hours prior to running the assay on E-VIPR, HEK cells expressing a truncated form of human NaV 1.8 with full channel activity were seeded into microtiter 384-well plates, pre-coated with matrigel, at a density of 25,000 cells per well. 2.5-5% KIR2.1 Bacmam virus was added to the final cell suspension before seeding into cell plates. HEK cells were grown in Dulbecco's Modified Eagle's Medium (DMEM) supplemented with 10% FBS (Fetal Bovine Serum, qualified; Sigma #F4135), 1% NEAA (Non-Essential Amino Acids, Gibco #11140), 1% HEPES (Gibco #15630), 1% Pen-Strep (Penicillin-Streptomycin; Gibco #15140) and 5 μg/ml Blasticidin (Gibco #R210-01). Cells were expanded in vented cap cell culture flasks, with 90-95% humidity and 5% CO2.
Reagents and Stock Solutions:
• 100 mg/mL Pluronic F-127 (Sigma #P2443), in dry DMSO • Compound Plates: Corning 384-well Polypropylene Round Bottom #3656 • Cell Plates: 384-well tissue culture treated plates (Greiner #781091-1B) • 2.5-5% KIR 2.1 Bacmam virus (produced in-house), prepared as described in Section 3.3 of J. A. Fornwald et al., Gene Expression in Mammalian Cells Using BacMam, a Modified Baculovirus System, 1350 Methods in Molecular Biology 95-116 (2016), the entire contents of which are incorporated by reference. The concentration used can be dependent on viral titer of each batch. • 5 mM DiSBAC6 (3), a voltage sensitive oxonol acceptor (CAS number 169211-44-3; 5-[3-(1,3-dihexylhexahydro-4,6-dioxo-2-thioxo-5-pyrimidinyl)-2-propen-1-ylidene]-1,3-dihexyldihydro-2-thioxo-4,6(1H,5H)-pyrimidinedione), in dry DMSO. The preparation of DiSBAC6 (3) is analogous to that of DiSBAC4 (3) as described in Voltage Sensing by Fluorescence Resonance Energy Transfer in Single Cells, Gonzalez, J. E. and Tsien, R. Y. (1995) Biophys. J. 69, 1272-1280. • 5 mM CC2-DMPE, a commercially available membrane-bound coumarin phospholipid FRET donor (ThermoFisher Scientific catalog number K1017, CAS number 393782-57-5; tetradecanoic acid, 1,1′-[(1R)-1-[8-(6-chloro-7-hydroxy-2-oxo-2H-1-benzopyran-3-yl)-3-hydroxy-3-oxido-8-oxo-2,4-dioxa-7-aza-3-phosphaoct-1-yl]-1,2-ethanediyl] ester) was prepared in dry DMSO. […]

human NaV 1.8, sequence (Q9Y5Y9 whole entry, looked up): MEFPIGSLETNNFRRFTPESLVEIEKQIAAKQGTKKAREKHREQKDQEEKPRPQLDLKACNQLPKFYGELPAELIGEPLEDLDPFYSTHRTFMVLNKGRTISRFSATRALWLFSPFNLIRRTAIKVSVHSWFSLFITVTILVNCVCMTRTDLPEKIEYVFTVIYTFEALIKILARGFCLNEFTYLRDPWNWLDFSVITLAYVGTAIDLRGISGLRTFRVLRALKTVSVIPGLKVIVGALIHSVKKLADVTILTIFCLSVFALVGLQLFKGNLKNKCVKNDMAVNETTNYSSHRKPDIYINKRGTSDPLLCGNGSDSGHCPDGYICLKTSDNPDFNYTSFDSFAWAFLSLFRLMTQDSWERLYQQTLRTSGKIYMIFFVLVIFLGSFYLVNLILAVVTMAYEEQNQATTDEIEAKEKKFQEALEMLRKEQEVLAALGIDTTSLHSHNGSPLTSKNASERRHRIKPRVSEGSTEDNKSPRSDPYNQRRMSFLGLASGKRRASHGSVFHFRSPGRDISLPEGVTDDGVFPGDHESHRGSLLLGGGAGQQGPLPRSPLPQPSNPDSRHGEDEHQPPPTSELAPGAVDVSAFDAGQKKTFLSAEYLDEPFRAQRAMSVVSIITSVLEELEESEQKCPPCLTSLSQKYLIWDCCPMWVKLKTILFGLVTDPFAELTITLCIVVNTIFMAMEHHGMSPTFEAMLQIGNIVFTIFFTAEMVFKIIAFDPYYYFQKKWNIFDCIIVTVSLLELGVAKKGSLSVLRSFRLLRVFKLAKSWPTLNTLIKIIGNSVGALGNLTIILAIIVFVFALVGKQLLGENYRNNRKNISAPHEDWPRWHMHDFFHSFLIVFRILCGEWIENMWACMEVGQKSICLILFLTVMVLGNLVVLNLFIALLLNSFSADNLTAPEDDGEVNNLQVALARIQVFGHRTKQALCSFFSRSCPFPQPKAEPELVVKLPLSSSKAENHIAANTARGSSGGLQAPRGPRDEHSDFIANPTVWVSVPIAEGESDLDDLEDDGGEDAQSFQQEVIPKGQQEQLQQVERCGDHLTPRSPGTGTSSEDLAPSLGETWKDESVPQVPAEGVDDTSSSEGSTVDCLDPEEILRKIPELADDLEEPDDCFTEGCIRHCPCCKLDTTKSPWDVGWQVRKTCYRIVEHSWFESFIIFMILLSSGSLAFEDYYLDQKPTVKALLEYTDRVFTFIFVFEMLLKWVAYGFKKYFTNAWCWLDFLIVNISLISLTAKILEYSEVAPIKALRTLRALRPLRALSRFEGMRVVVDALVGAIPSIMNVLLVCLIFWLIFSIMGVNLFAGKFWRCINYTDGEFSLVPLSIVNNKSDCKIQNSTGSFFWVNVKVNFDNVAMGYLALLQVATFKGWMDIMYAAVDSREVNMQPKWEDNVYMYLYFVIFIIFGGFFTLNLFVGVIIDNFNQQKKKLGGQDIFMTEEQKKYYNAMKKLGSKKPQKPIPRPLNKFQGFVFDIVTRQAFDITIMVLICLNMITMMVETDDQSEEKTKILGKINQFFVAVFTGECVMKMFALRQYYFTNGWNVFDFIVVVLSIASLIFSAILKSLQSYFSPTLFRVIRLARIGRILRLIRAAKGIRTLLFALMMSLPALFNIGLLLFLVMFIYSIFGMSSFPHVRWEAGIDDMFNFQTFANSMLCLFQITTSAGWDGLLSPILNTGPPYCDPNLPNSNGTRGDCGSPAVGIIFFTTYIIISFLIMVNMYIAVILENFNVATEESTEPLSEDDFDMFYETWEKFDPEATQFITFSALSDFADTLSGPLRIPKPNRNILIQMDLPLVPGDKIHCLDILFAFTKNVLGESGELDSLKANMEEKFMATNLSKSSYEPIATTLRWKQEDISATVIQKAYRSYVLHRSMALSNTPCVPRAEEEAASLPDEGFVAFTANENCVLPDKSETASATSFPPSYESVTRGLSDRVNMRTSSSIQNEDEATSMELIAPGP

Compound	IC50
[2H]C([2H])([2H])Oc1cc(OC(F)(F)F)ccc1Oc1cc(C(F)(F)F)c(F)cc1C(=O)Nc1ccc(C(=O)OC)nc1 [Compound 1, Methyl 5-[[5-fluoro-2-[2-(trideuteriomethoxy)-4-(trifluoromethoxy)phenoxy]-4-(trifluoromethyl)benzoyl]amino]pyridine-2-carboxylate]	≥ 1 µM
COC(=O)c1cc(NC(=O)c2c(Oc3ccc(OC(F)(F)F)cc3OC)ccc(C3CC3)c2C)c(C)cn1 [Compound 2, methyl 4-[[3-cyclopropyl-6-[2-methoxy-4-(trifluoromethoxy)phenoxy]-2-methyl-benzoyl]amino]-5-methyl-pyridine-2-carboxylate]	0.1 to 0.5 µM
COC(=O)c1cc(NC(=O)c2c(Oc3ccc(OC(F)(F)F)cc3)ccc(C(F)(F)F)c2F)ccn1 [Compound 3, methyl 4-[[2-fluoro-6-[4-(trifluoromethoxy)phenoxy]-3-(trifluoromethyl)benzoyl]amino]pyridine-2-carboxylate]	0.1 to 0.5 µM
[2H]C([2H])([2H])Oc1cc(OC(F)(F)F)ccc1Oc1cc(C(F)(F)F)c(F)cc1C(=O)Nc1ccnc(C(=O)OC)c1 [Compound 6, methyl 4-[[5-fluoro-2-[2-(trideuteriomethoxy)-4-(trifluoromethoxy)phenoxy]-4-(trifluoromethyl)benzoyl]amino]pyridine-2-carboxylate]	0.1 to 0.5 µM
[2H]C([2H])([2H])Oc1cc(OC(F)(F)F)ccc1Oc1cc(C(F)(F)F)c(F)cc1C(=O)Nc1ccnc(NC(=O)OC(C)(C)C)c1 [Compound 7, tert-butyl N-[4-[[5-fluoro-2-[2-(trideuteriomethoxy)-4-(trifluoromethoxy)phenoxy]-4-(trifluoromethyl)benzoyl]amino]-2-pyridyl]carbamate]	≥ 1 µM
[2H]C([2H])([2H])Oc1cc(OC(F)(F)F)ccc1Oc1ccc(C(F)(F)F)cc1C(=O)Nc1ccnc(C(=O)OC)c1 [Compound 8, methyl 4-[[2-[2-(trideuteriomethoxy)-4-(trifluoromethoxy)phenoxy]-5-(trifluoromethyl)benzoyl]amino]pyridine-2-carboxylate]	0.5 to 1 µM
[2H]C([2H])([2H])Oc1cc(OC(F)(F)F)ccc1Oc1ccc(C(F)(F)F)cc1C(=O)Nc1ccnc(NC(=O)OC(C)(C)C)c1 [Compound 9, tert-butyl N-[4-[[2-[2-(trideuteriomethoxy)-4-(trifluoromethoxy)phenoxy]-5-(trifluoromethyl)benzoyl]amino]-2-pyridyl]carbamate]	≥ 1 µM
COC(=O)c1ccc(NC(=O)c2c(Oc3ccc(F)cc3OC)ccc(C(F)(F)F)c2F)cn1 [Compound 10, methyl 5-[[2-fluoro-6-(4-fluoro-2-methoxy-phenoxy)-3-(trifluoromethyl)benzoyl]amino]pyridine-2-carboxylate]	≥ 1 µM
[2H]C([2H])([2H])Oc1cc(OC(F)(F)F)ccc1Oc1ccc(C(F)(F)F)c(F)c1C(=O)Nc1ccc(C(=O)OC)nc1 [Compound 11, methyl 5-[[2-fluoro-6-[2-(trideuteriomethoxy)-4-(trifluoromethoxy)phenoxy]-3-(trifluoromethyl)benzoyl]amino]pyridine-2-carboxylate]	0.1 to 0.5 µM
[2H]C([2H])([2H])Oc1cc(OC(F)(F)F)ccc1Oc1ccc(C(F)(F)F)cc1C(=O)Nc1ccc(C(=O)OC)nc1 [Compound 12, methyl 5-[[2-[2-(trideuteriomethoxy)-4-(trifluoromethoxy)phenoxy]-5-(trifluoromethyl)benzoyl]amino]pyridine-2-carboxylate]	≥ 1 µM
COC(=O)c1ccc(NC(=O)c2c(Oc3ccc(OC(F)(F)F)cc3)ccc(C(F)(F)F)c2F)cn1 [Compound 13, methyl 5-[[2-fluoro-6-[4-(trifluoromethoxy)phenoxy]-3-(trifluoromethyl)benzoyl]amino]pyridine-2-carboxylate]	≥ 1 µM
COC(=O)c1ccc(NC(=O)c2c(Oc3ccc(OC(F)(F)F)c(F)c3OC)ccc(C(F)(F)F)c2F)cn1 [Compound 14, Methyl 5-[[2-fluoro-6-[3-fluoro-2-methoxy-4-(trifluoromethoxy)phenoxy]-3-(trifluoromethyl)benzoyl]amino]pyridine-2-carboxylate]	0.1 to 0.5 µM
COC(=O)c1ccc(NC(=O)c2c(Oc3ccc(OC(F)(F)F)cc3OC)ccc(C(F)(F)F)c2F)cn1 [Compound 15, Methyl 5-[[2-fluoro-6-[2-methoxy-4-(trifluoromethoxy)phenoxy]-3-(trifluoromethyl)benzoyl]amino]pyridine-2-carboxylate]	0.1 to 0.5 µM
COC(=O)c1cc(NC(=O)c2c(Oc3ccc(OC(F)(F)F)c(F)c3C)ccc(C(F)(F)F)c2C)c(C)cn1 [Compound 16, Methyl 4-[[6-[3-fluoro-2-methyl-4-(trifluoromethoxy)phenoxy]-2-methyl-3-(trifluoromethyl)benzoyl]amino]-5-methyl-pyridine-2-carboxylate]	< 0.1 µM
COC(=O)c1cc(NC(=O)c2c(Oc3ccc(OC(F)(F)F)c(F)c3C)ccc(C(F)(F)F)c2F)c(C)cn1 [Compound 17, Methyl 4-[[2-fluoro-6-[3-fluoro-2-methyl-4-(trifluoromethoxy)phenoxy]-3-(trifluoromethyl)benzoyl]amino]-5-methyl-pyridine-2-carboxylate]	< 0.1 µM
COC(=O)c1cc(NC(=O)c2c(Oc3ccc(F)c(F)c3C)ccc(C(F)(F)F)c2C)c(C)cn1 [Compound 18, Methyl 4-[[6-(3,4-difluoro-2-methyl-phenoxy)-2-methyl-3-(trifluoromethyl)benzoyl]amino]-5-methyl-pyridine-2-carboxylate]	0.5 to 1 µM
COC(=O)c1nccc(NC(=O)c2c(Oc3ccc(F)c(F)c3C)ccc(C(F)(F)F)c2C)c1C [Compound 19, Methyl 4-[[6-(3,4-difluoro-2-methyl-phenoxy)-2-methyl-3-(trifluoromethyl)benzoyl]amino]-3-methyl-pyridine-2-carboxylate]	≥ 1 µM
COC(=O)c1cc(NC(=O)c2c(Oc3ccc(OC(F)(F)F)c(F)c3Cl)ccc(C(F)(F)F)c2F)c(C)cn1 [Compound 20, Methyl 4-[[6-[2-chloro-3-fluoro-4-(trifluoromethoxy)phenoxy]-2-fluoro-3-(trifluoromethyl)benzoyl]amino]-5-methyl-pyridine-2-carboxylate]	< 0.1 µM
COC(=O)c1nccc(NC(=O)c2c(Oc3ccc(OC(F)(F)F)cc3OC)ccc(C(F)(F)F)c2F)c1C [Compound 21, Methyl 4-[[2-fluoro-6-[2-methoxy-4-(trifluoromethoxy)phenoxy]-3-(trifluoromethyl)benzoyl]amino]-3-methyl-pyridine-2-carboxylate]	≥ 1 µM
COC(=O)c1cc(NC(=O)c2c(Oc3ccc(OC(F)(F)F)cc3Cl)ccc(C3CC3)c2C)c(C)cn1 [Compound 22, Methyl 4-[[6-[2-chloro-4-(trifluoromethoxy)phenoxy]-3-cyclopropyl-2-methyl-benzoyl]amino]-5-methyl-pyridine-2-carboxylate]	≥ 1 µM
COC(=O)c1ccnc(NC(=O)c2c(Oc3ccc(OC(F)(F)F)c(F)c3OC)ccc(C(F)(F)F)c2F)c1 [Compound 23, Methyl 2-[[2-fluoro-6-[3-fluoro-2-methoxy-4-(trifluoromethoxy)phenoxy]-3-(trifluoromethyl)benzoyl]amino]pyridine-4-carboxylate]	0.5 to 1 µM
COC(=O)c1ccnc(NC(=O)c2c(Oc3ccc(OC(F)(F)F)c(F)c3OC)ccc(C(F)(F)F)c2C)c1 [Compound 24, Methyl 2-[[6-[3-fluoro-2-methoxy-4-(trifluoromethoxy)phenoxy]-2-methyl-3-(trifluoromethyl)benzoyl]amino]pyridine-4-carboxylate]	≥ 1 µM
COC(=O)c1cc(NC(=O)c2c(Oc3ccc(OC(F)(F)F)cc3OC)ccc(C(F)(F)F)c2O)ccn1 [Compound 25, Methyl 4-[[2-hydroxy-6-[2-methoxy-4-(trifluoromethoxy)phenoxy]-3-(trifluoromethyl)benzoyl]amino]pyridine-2-carboxylate]	0.1 to 0.5 µM
